We go through 13 compounds from US12459951B2, “Compounds that interact with RAS superfamily proteins for treatment of cancers, inflammatory diseases, rasopathies, and fibrotic disease” (SHY Therapeutics, LLC, priority 2022, dated 2025).

Structures are written as SMILES.

One test has as its system Akt phosphorylation. Briefly: Akt Phosphorylation Assay (western blot), Panc-1. Format: cell-based, human. The following applies: at 10 μM, * = activation. A digest of the protocol:
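Phospho-Akt (Ser473) was measured by western blot in lysates of KRas G12D Panc-1 cells exposed to test compound for 6 h at 37 °C, either at 10 μM final with 0.3% DMSO or as serial dilutions for IC50. One format used overnight 0.5% FBS starvation followed by a 15 min pulse of 1.5 ng/ml EGF. The other used cells in 10% FBS with no stimulation.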
In general terms: A western blot detects proteins with antibodies after separation by electrophoresis.

The next test concerns KRas G12D mutant. Briefly: Ras GTP Binding Domain Inhibition Assay (Ras Superfamily Assay). The following applies: 20 μM compound; for KRas G12D mutant + SOS: % inh.: with SOS; for KRas G12D mutant: % inh.: without SOS. The essentials:
(§1)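 Ni-plate capture of His-tagged protein (10-30 μg/mL, o/n 4° C); cpd 20 μM or dilution series, 1% DMSO, 3 h RT ± Sos 556-1049 last h; 100 nM Cy-labelled GTP 45 min RT; 3× wash; fluorescence read.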

Another test deals with KRas wild type. The test is described as above. The following applies: 20 μM compound; for KRas wild type + SOS: % inh.: with SOS; for KRas wild type: % inh.: without SOS. The essentials:
as §1

A further test has as its target T1, Rac-1 (Homo sapiens, UniProt P63000).
T1 construct: made in house
The test is described as above. The note with it: read-out: Rac-1: % inh. The essentials: as §1

Turning to `CO[C@@H]1CC[C@@H](Nc2nc(-c3nccn3C)nn3cc(-c4cccnc4)c(C)c23)C1` (racemic) [Compound 154, rac N-((1R,3R)-3-methoxy-cyclopentyl)-5-methyl-2-(1-methyl-1H-imidazol-2-yl)-6-(pyridin-3-yl)pyrrolo[2,1-f][1,2,4]triazin-4-amine], in the test on Akt phosphorylation, the “% inh of Akt phosphorylation in Panc-1” value was “B* (26-49% activation)”. For the same compound, in the test with KRas G12D mutant, the “KRas G12D mutant + SOS: % inh.” value was “D (D = 76-100% inhibition)” and the “KRas G12D mutant: % inh.” value is listed as “D (D = 76-100% inhibition)”. Further, in the test with KRas wild type, the “KRas wild type + SOS: % inh.” value is recorded as “B (B = 26-49% inhibition)” and the “KRas wild type: % inh.” value is reported as “B (B = 26-49% inhibition)”. On Rac-1, the inhibition at 20 µM lay in the range of 50 to 75%.

`COc1cnc(Nc2nc(-c3nccn3C)nn3cc(-c4ccn(C)n4)c(C)c23)nc1.Cl` [Compound 117, N-(5-Methoxypyrimidin-2-yl)-5-methyl-2-(1-methyl-1H-imidazol-2-yl)-6-(1-methyl-1H-pyrazol-3-yl)pyrrolo[2,1-f][1,2,4]triazin-4-amine hydrochloride salt]: the “% inh of Akt phosphorylation in Panc-1” value with Akt phosphorylation is reported as “B (26-49% inhibition)”. Besides, in the test on KRas G12D mutant, the “KRas G12D mutant + SOS: % inh.” value is given as “A (A = 1-25% inhibition)” and the “KRas G12D mutant: % inh.” value was “A (A = 1-25% inhibition)”. Besides, in the test on KRas wild type, the “KRas wild type + SOS: % inh.” value is on record as “A (A = 1-25% inhibition)” and the “KRas wild type: % inh.” value is recorded as “A (A = 1-25% inhibition)”. For the same compound, the inhibition at 20 µM at Rac-1 was in the range of 1 to 25%.

With `Cc1c(-c2ccn(C)n2)cn2nc(-c3nccn3C)nc(Nc3ccncn3)c12.Cl` [Compound 116, 5-Methyl-2-(1-methyl-1H-imidazol-2-yl)-6-(1-methyl-1H-pyrazol-3-yl)-N-(pyrimidin-4-yl)pyrrolo[2,1-f][1,2,4]triazin-4-amine hydrochloride salt], the “% inh of Akt phosphorylation in Panc-1” value with Akt phosphorylation was “D* (85-100% activation)”. Moreover, in the test on KRas G12D mutant, the “KRas G12D mutant + SOS: % inh.” value is “C (C = 50-75% inhibition)” and the “KRas G12D mutant: % inh.” value is recorded as “C (C = 50-75% inhibition)”. Also, in the test on KRas wild type, the “KRas wild type + SOS: % inh.” value was “D (D = 76-100% inhibition)” and the “KRas wild type: % inh.” value is “C (C = 50-75% inhibition)”. Also, on Rac-1, the inhibition at 20 µM was in the range of 50 to 75%.

`Cc1c(-c2ccn(C)n2)cn2nc(-c3nccn3C)nc(Nc3nccc(OCCN(C)C)n3)c12` [Compound 105, N-(4-(2-(Dimethylamino)ethoxy)pyrimidin-2-yl)-5-methyl-2-(1-methyl-1H-imidazol-2-yl)-6-(1-methyl-1H-pyrazol-3-yl)pyrrolo[2,1-f][1,2,4]triazin-4-amine]: in the test on Akt phosphorylation, the “% inh of Akt phosphorylation in Panc-1” value is listed as “C* (46-84% activation)”. Besides, in the test on KRas G12D mutant, the “KRas G12D mutant + SOS: % inh.” value was “D (D = 76-100% inhibition)” and the “KRas G12D mutant: % inh.” value is “D (D = 76-100% inhibition)”. Besides, in the test with KRas wild type, the “KRas wild type + SOS: % inh.” value is listed as “D (D = 76-100% inhibition)” and the “KRas wild type: % inh.” value is “C (C = 50-75% inhibition)”. Moreover, on Rac-1, the inhibition at 20 µM was 76 to 100%.

As to `COCCOc1cc(Nc2nc(-c3nccn3C)nn3cc(-c4ccn(C(C)C)n4)c(C)c23)ncn1` [Compound 122, 6-(1-Isopropyl-1H-pyrazol-3-yl)-N-(6-(2-methoxyethoxy)pyrimidin-4-yl)-5-methyl-2-(1-methyl-1H-imidazol-2-yl)pyrrolo[2,1-f][1,2,4]triazin-4-amine], in the test with Akt phosphorylation, the “% inh of Akt phosphorylation in Panc-1” value is reported as “C* (46-84% activation)”. In the test with KRas G12D mutant, the “KRas G12D mutant + SOS: % inh.” value is “D (D = 76-100% inhibition)” and the “KRas G12D mutant: % inh.” value was “D (D = 76-100% inhibition)”. Moreover, in the test with KRas wild type, the “KRas wild type + SOS: % inh.” value was “D (D = 76-100% inhibition)” and the “KRas wild type: % inh.” value was “D (D = 76-100% inhibition)”. The inhibition at 20 µM at Rac-1 is 76 to 100%.

With `Cc1c(-c2ccn(C3CC3)n2)cn2nc(-c3nccn3C)nc(Nc3cc(OCCO)ccn3)c12` [Compound 146, 2-((2-((6-(1-Cyclopropyl-1H-pyrazol-3-yl)-5-methyl-2-(1-methyl-1H-imidazol-2-yl)pyrrolo[2,1-f][1,2,4]triazin-4-yl)amino)pyridin-4-yl)oxy)ethan-1-ol], in the test with Akt phosphorylation, the “% inh of Akt phosphorylation in Panc-1” value is on record as “D* (85-100% activation)”. In addition, in the test with KRas G12D mutant, the “KRas G12D mutant + SOS: % inh.” value was “D (D = 76-100% inhibition)” and the “KRas G12D mutant: % inh.” value is “D (D = 76-100% inhibition)”. In the test on KRas wild type, the “KRas wild type + SOS: % inh.” value is reported as “D (D = 76-100% inhibition)” and the “KRas wild type: % inh.” value was “D (D = 76-100% inhibition)”. Moreover, the inhibition at 20 µM at Rac-1 lay in the range of 76 to 100%.

Turning to `COc1cc(-c2cn3nc(-c4nccn4C)nc(N[C@@H]4CC[C@H](OC)C4)c3c2C)ccn1` (racemic) [Compound 164, rac N-((1R,3S)-3-Methoxycyclopentyl)-6-(2-methoxypyridin-4-yl)-5-methyl-2-(1-methyl-1H-imidazol-2-yl)pyrrolo[2,1-f][1,2,4]triazin-4-amine], in the test with Akt phosphorylation, the “% inh of Akt phosphorylation in Panc-1” value was “A* (1-25% activation)”. Moreover, in the test with KRas G12D mutant, the “KRas G12D mutant + SOS: % inh.” value is 0 (0 = 0% inhibition) and the “KRas G12D mutant: % inh.” value was “A (A = 1-25% inhibition)”. Further, in the test on KRas wild type, the “KRas wild type + SOS: % inh.” value is given as “A (A = 1-25% inhibition)” and the “KRas wild type: % inh.” value is on record as “A (A = 1-25% inhibition)”. Besides, the inhibition at 20 µM on Rac-1 is 1 to 25%.

For `CO[C@H]1CC[C@@H](Nc2nc(-c3nccn3C)nn3cc(-c4cccnc4)c(C)c23)C1` (racemic) [Compound 155, rac N-((1R,3S)-3-methoxy-cyclopentyl)-5-methyl-2-(1-methyl-1H-imidazol-2-yl)-6-(pyridin-3-yl)pyrrolo[2,1-f][1,2,4]triazin-4-amine], the “% inh of Akt phosphorylation in Panc-1” value in the test with Akt phosphorylation was “A (1-25% inhibition)”. Also, in the test on KRas G12D mutant, the “KRas G12D mutant + SOS: % inh.” value is given as “A (A = 1-25% inhibition)” and the “KRas G12D mutant: % inh.” value is listed as “A (A = 1-25% inhibition)”. In the test on KRas wild type, the “KRas wild type + SOS: % inh.” value is “A (A = 1-25% inhibition)” and the “KRas wild type: % inh.” value is recorded as “A (A = 1-25% inhibition)”. Also, the inhibition at 20 µM at Rac-1 fell in the range of 1 to 25%.

Regarding `COc1cc(-c2cn3nc(-c4nccn4C)nc(N[C@H]4C[C@@H](OC)C4)c3c2C)ccn1` [Compound 162, N-((1s,3s)-3-Methoxycyclobutyl)-6-(2-methoxypyridin-4-yl)-5-methyl-2-(1-methyl-1H-imidazol-2-yl)pyrrolo[2,1-f][1,2,4]triazin-4-amine], the “% inh of Akt phosphorylation in Panc-1” value in the test on Akt phosphorylation was “B (26-49% inhibition)”. In addition, in the test on KRas G12D mutant, the “KRas G12D mutant + SOS: % inh.” value is reported as 0 (0 = 0% inhibition) and the “KRas G12D mutant: % inh.” value is given as 0 (0 = 0% inhibition). In addition, in the test with KRas wild type, the “KRas wild type + SOS: % inh.” value is on record as 0 (0 = 0% inhibition) and the “KRas wild type: % inh.” value was “A (A = 1-25% inhibition)”. Also, on Rac-1, the inhibition at 20 µM came to 0%.

In the case of `Cc1c(-c2ccn(C3CC3)n2)cn2nc(-c3nccn3C)nc(Nc3ccccn3)c12` [Compound 143, 6-(1-Cyclopropyl-1H-pyrazol-3-yl)-5-methyl-2-(1-methyl-1H-imidazol-2-yl)-N-(pyridin-2-yl)pyrrolo[2,1-f][1,2,4]triazin-4-amine], the “% inh of Akt phosphorylation in Panc-1” value in the test on Akt phosphorylation is “D* (85-100% activation)”. For the same compound, in the test on KRas G12D mutant, the “KRas G12D mutant + SOS: % inh.” value was “D (D = 76-100% inhibition)” and the “KRas G12D mutant: % inh.” value is “D (D = 76-100% inhibition)”. Further, in the test with KRas wild type, the “KRas wild type + SOS: % inh.” value is “D (D = 76-100% inhibition)” and the “KRas wild type: % inh.” value is “D (D = 76-100% inhibition)”. Further, the inhibition at 20 µM at Rac-1 fell in the range of 76 to 100%.

In the case of `CO[C@H]1C[C@H](Nc2nc(-c3nccn3C)nn3cc(-c4cccnc4)c(-c4ccccn4)c23)C1` [Compound 168, N-((1r,3r)-3-Methoxycyclobutyl)-2-(1-methyl-1H-imidazol-2-yl)-5-(pyridin-2-yl)-6-(pyridin-3-yl)pyrrolo[2,1-f][1,2,4]triazin-4-amine], the “% inh of Akt phosphorylation in Panc-1” value in the test on Akt phosphorylation is on record as 0 (0% inhibition). In the test with KRas G12D mutant, the “KRas G12D mutant + SOS: % inh.” value is recorded as “A (A = 1-25% inhibition)” and the “KRas G12D mutant: % inh.” value was “B (B = 26-49% inhibition)”. Moreover, in the test on KRas wild type, the “KRas wild type + SOS: % inh.” value is reported as “A (A = 1-25% inhibition)” and the “KRas wild type: % inh.” value was “A (A = 1-25% inhibition)”. On Rac-1, the inhibition at 20 µM fell in the range of 1 to 25%.

Regarding `Cc1c(-c2ccn(C3CC3)n2)cn2nc(-c3nccn3C)nc(Nc3cc(OCC(F)(F)F)ccn3)c12` [Compound 140, 6-(1-Cyclopropyl-1H-pyrazol-3-yl)-5-methyl-2-(1-methyl-1H-imidazol-2-yl)-N-(4-(2,2,2-trifluoroethoxy)pyridin-2-yl)pyrrolo[2,1-f][1,2,4]triazin-4-amine], in the test with Akt phosphorylation, the “% inh of Akt phosphorylation in Panc-1” value is listed as “D* (85-100% activation)”. Moreover, in the test on KRas G12D mutant, the “KRas G12D mutant + SOS: % inh.” value is on record as “D (D = 76-100% inhibition)” and the “KRas G12D mutant: % inh.” value is recorded as “C (C = 50-75% inhibition)”. In the test with KRas wild type, the “KRas wild type + SOS: % inh.” value is “C (C = 50-75% inhibition)” and the “KRas wild type: % inh.” value is “C (C = 50-75% inhibition)”. In addition, the inhibition at 20 µM at Rac-1 was 76 to 100%.

Consider `CO[C@H]1CC[C@@H](Nc2nc(-c3ccccn3)nn3cc(-c4ccn(C(C)C)n4)c(C)c23)C1` (racemic) [Compound 9, rac 6-(1-Isopropyl-1H-pyrazol-3-yl)-N-((1R,3S)-3-methoxycyclopentyl)-5-methyl-2-(pyridin-2-yl)pyrrolo[2,1-f][1,2,4]triazin-4-amine], for which the “% inh of Akt phosphorylation in Panc-1” value in the test with Akt phosphorylation is on record as 0 (0% inhibition). Moreover, in the test on KRas G12D mutant, the “KRas G12D mutant + SOS: % inh.” value is given as 0 (0 = 0% inhibition) and the “KRas G12D mutant: % inh.” value is reported as 0 (0 = 0% inhibition). For the same compound, in the test with KRas wild type, the “KRas wild type + SOS: % inh.” value is on record as 0 (0 = 0% inhibition) and the “KRas wild type: % inh.” value was 0 (0 = 0% inhibition). Also, the inhibition at 20 µM on Rac-1 came out at 0%.
